Test [1] has as its target T1, KRas^G12D (Homo sapiens, UniProt P01116, G12D).
T1 construct: Biotinylated KRas (corresponding to amino acids 1-169, produced at Accelegan Inc.); biotin (biotinylated); purchased Accelegan Inc
Nature of the test: KRas binding assay (TR-FRET tracer displacement), KRas G12D. (TR-FRET usually uses a lanthanide donor and a delayed reading to cut background.)

In test [2] the target is T2, KRas^G12R (Homo sapiens, UniProt P01116, G12R).
T2 construct: Biotinylated KRas (corresponding to amino acids 1-169, produced at Accelegan Inc.); biotin (biotinylated); purchased Accelegan Inc
In words: KRas binding assay (TR-FRET tracer displacement), KRas G12R.

Test [3] addresses T3, KRas^G12V (Homo sapiens, UniProt P01116, G12V).
T3 construct: Biotinylated KRas (corresponding to amino acids 1-169, produced at Accelegan Inc.); biotin (biotinylated); purchased Accelegan Inc
Nature of the test: KRas binding assay (TR-FRET tracer displacement), KRas G12V.

The test system of test [4] is KRas-mediated phosphorylation of ERK in MKN1 cells. In words: Inhibition of KRas-mediated phosphorylation of ERK (Cisbio HTRF pERK), MKN1 cells. The class given is cell-based. The following applies: Homo sapiens, MKN-1. In short, it runs like this:
(§1)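 Seeding density was 6,000 cells/well; medium RPMI, 10% FBS. Read-out by homogeneous time-resolved fluorescence (pERK) after 4 hours covered at room temperature.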

Test [5] concerns KRas-mediated phosphorylation of ERK in PSN1 cells. In words: Inhibition of KRas-mediated phosphorylation of ERK (Cisbio HTRF pERK), PSN1 cells. The format is cell-based. The conditions noted are these: Homo sapiens. In short, it runs like this: as §1
Test [6] deals with KRas-mediated phosphorylation of ERK in AsPC-1 cells. In words: Inhibition of KRas-mediated phosphorylation of ERK (Cisbio HTRF pERK), AsPC-1 cells. The class given is cell-based. The conditions noted are these: Homo sapiens, ASPC1, AsPC-1 cells; HTRF pERK. In short, it runs like this: (§2)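 Each compound was tested at 10 concentrations, threefold apart with 10 uM the highest, for 3 hrs on 6,000 seeded cells; final DMSO was 0.8% and Trametinib (0.2 uM) served as Min control. Lysed cells were analysed for pERK by HTRF.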

Test [7] has as its system KRas-mediated phosphorylation of ERK in H727 cells. In words: Inhibition of KRas-mediated phosphorylation of ERK (Cisbio HTRF pERK), H727 cells. The following applies: Homo sapiens, NCI-H727, H727 cells; HTRF pERK. The format is cell-based. The essentials:
as §2

In test [8] the test system is KRas-mediated phosphorylation of ERK in A549 cells. Nature of the test: Inhibition of KRas-mediated phosphorylation of ERK (Cisbio HTRF pERK), A549 cells. The conditions noted are these: Homo sapiens, HTRF pERK. The class given is cell-based. The essentials:
(§3)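 HTRF readout of phospho-ERK in cell lysates after 3 hrs of compound exposure. Dosing: 10 uM top, 3-fold steps, 10 doses, final DMSO 0.8%. Min control: 0.2 uM Trametinib. Lysis ran 40 mins at 4° C, and antibody detection 2 hrs at room temperature.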

Test [9] relates to KRas-mediated phosphorylation of ERK in H460 cells. Nature of the test: Inhibition of KRas-mediated phosphorylation of ERK (Cisbio HTRF pERK), H460 cells. The following applies: Homo sapiens, NCI-H460, HTRF pERK. The class given is cell-based. The essentials:
as §2

Test [10] has as its system KRas-mediated phosphorylation of ERK in HCT116 cells. Nature of the test: Inhibition of KRas-mediated phosphorylation of ERK (Cisbio HTRF pERK), HCT116 cells. The class given is cell-based. The following applies: Homo sapiens, HCT-116, HTRF pERK. In short, it runs like this: as §3
Test [11] deals with KRas-mediated phosphorylation of ERK in H358 cells. In words: Inhibition of KRas-mediated phosphorylation of ERK (Cisbio HTRF pERK), H358 cells. The class given is cell-based. The conditions noted are these: Homo sapiens, NCI-H358, HTRF pERK. In short, it runs like this: as §2

A word on the IC50: it is the concentration needed to halve the response being measured.

Some results are limits rather than exact numbers.

T1 sequence (P01116 1-169 isoform P01116-2 G12D): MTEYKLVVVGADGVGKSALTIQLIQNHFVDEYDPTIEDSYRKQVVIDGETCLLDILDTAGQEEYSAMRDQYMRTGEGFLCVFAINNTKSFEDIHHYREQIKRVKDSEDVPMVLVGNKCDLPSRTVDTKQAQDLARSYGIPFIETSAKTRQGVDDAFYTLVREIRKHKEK
T2 sequence (P01116 1-169 isoform P01116-2 G12R): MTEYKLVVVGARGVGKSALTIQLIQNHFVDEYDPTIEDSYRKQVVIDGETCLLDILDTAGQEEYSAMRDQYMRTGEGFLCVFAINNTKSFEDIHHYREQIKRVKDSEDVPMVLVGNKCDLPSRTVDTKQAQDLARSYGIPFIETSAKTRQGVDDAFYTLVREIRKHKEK
T3 sequence (P01116 1-169 isoform P01116-2 G12V): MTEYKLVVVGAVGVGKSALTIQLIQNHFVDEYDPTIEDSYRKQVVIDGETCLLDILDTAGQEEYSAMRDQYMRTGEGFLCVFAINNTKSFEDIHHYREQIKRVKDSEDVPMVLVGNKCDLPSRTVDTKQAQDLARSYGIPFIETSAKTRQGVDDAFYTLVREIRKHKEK

Regarding `CN(C)CC1(COc2nc(N3CCCC4(CCO4)C3)c3cnc(-c4cc(O)cc5ccc(F)c(Cl)c45)c(F)c3n2)CC1` (centres unmarked) [Example 854, 5-chloro-4-(2-((1-((dimethylamino)methyl)cyclopropyl)methoxy)-8-fluoro-4-(1-oxa-6-azaspiro[3.5]nonan-6-yl)pyrido[4,3-d]pyrimidin-7-yl)-6-fluoronaphthalen-2-ol], the IC50 is < 2 nM in test [1]; < 2 nM in test [2]; < 2 nM in test [3]; 6 nM in test [4]; 3690 nM in test [5]; 20 nM in test [6]. The IC50 was 48 nM in test [7]; 36 nM in test [8]; 21 nM in test [9]; 40 nM in [10]; 11 nM in [11].

For the compound `CCc1c(F)ccc2cc(O)cc(-c3ncc4c(N5CC6CCC(COCCOC)(C6)C5)nc(OC[C@@]56CCCN5C[C@H](F)C6)nc4c3F)c12` (stereo partly drawn) [Example 857, 5-ethyl-6-fluoro-4-(8-fluoro-2-(((2R,7aS)-2-fluorotetrahydro-1H-pyrrolizin-7a(5H)-yl)methoxy)-4-(1-((2-methoxyethoxy)methyl)-3-azabicyclo[3.2.1]octan-3-yl)pyrido[4,3-d]pyrimidin-7-yl)naphthalen-2-ol], the IC50 was 19 nM in test [1]; 9 nM in test [2]; 6 nM in test [3]; 6 nM in test [4]; > 10000 nM in test [5]; 967 nM in [6]. For the same compound, the IC50 in [7] is 352 nM; in test [8], 611 nM; in test [9] it was 144 nM; in [10], 410 nM; in [11] it was 369 nM.

As for `CCc1c(F)ccc2cc(O)cc(-c3ncc4c(N5CC6CCC(C5)C6C(=O)N(C)C)nc(OC[C@@]56CCCN5C[C@H](F)C6)nc4c3F)c12` (stereo partly drawn) [Example 858, (1R,5S,8S)-3-(7-(8-ethyl-7-fluoro-3-hydroxynaphthalen-1-yl)-8-fluoro-2-(((2R,7aS)-2-fluorotetrahydro-1H-pyrrolizin-7a(5H)-yl)methoxy)pyrido[4,3-d]pyrimidin-4-yl)-N,N-dimethyl-3-azabicyclo[3.2.1]octane-8-carboxamide], the IC50 was 6 nM in test [1]; 10 nM in test [2]; 7 nM in test [3]; 3 nM in [4]; > 10000 nM in [5]; 138 nM in [6]. The IC50 in test [7] came out at 375 nM; in [8], 19 nM; in test [9], 7 nM; in [10], 21 nM; in test [11] it was 43 nM.

Consider `CCc1c(F)ccc2cc(O)cc(-c3ncc4c(N5CC6CCC(C5)C6CC(N)=O)nc(OC[C@@]56CCCN5C[C@H](F)C6)nc4c3F)c12` (stereo partly drawn) [Example 859, 2-((1R,5S,8S)-3-(7-(8-ethyl-7-fluoro-3-hydroxynaphthalen-1-yl)-8-fluoro-2-(((2R,7aS)-2-fluorotetrahydro-1H-pyrrolizin-7a(5H)-yl)methoxy)pyrido[4,3-d]pyrimidin-4-yl)-3-azabicyclo[3.2.1]octan-8-yl)acetamide], for which the IC50 in test [1] was 51 nM; in test [2], 13 nM; in test [3], 17 nM; in [4] it was 56 nM; in [5], > 10000 nM; in test [6], > 10000 nM. Moreover, the IC50 in test [7] is 5480 nM; in [8], > 10000 nM; in [9], 892 nM; in [10] it was 1260 nM; in test [11], 1140 nM.

The values are drawn from patent publication US20260015350A1, “AZAQUINAZOLINE PAN-KRAS INHIBITORS” (Mirati Therapeutics, Inc., priority 2022, published 2026).
